According to paper PMC12516689, “Stimuli-Responsive Hydrogels from Liquid–Liquid Phase Separations of FUS-Derived Peptides” (ACS Applied Materials & Interfaces, 2025):

Key:
[1] = Hydrogel formation, inverted test tube analysis; assay type: physicochemical; conditions: for Concentration at which self-supporting hydrogel is obtained: sonication
Protocol: Peptide solutions were dissolved in PBS at concentrations varying from 2.0 μM to 2.0 mM. To allow a complete dissolution, samples were sonicated for 15 min. Hydrogels were prepared by adding PBS to the peptide powder to a final concentration of 2 or 3 wt %. After sonication, samples were stored at 4 °C overnight and the hydrogel formation was macroscopically evaluated through inverted test tube analyses.
Self-supporting hydrogels of L1-L2 and of L1-L2-L3 were obtained starting from a concentration of 2 wt % when 10 mM PBS was used in place of water (inverted test tube, Figure a). […] From a biomedical perspective, achieving gelation at lower peptide concentrations is highly desirable to minimize potential cytotoxicity and facilitate in vivo applications. […] This sequence, in comparison to the L1 and L2 motifs, features a higher content of glycine residues and a single tyrosine, while L1 and L2 each contain two. The different behavior of L3 might therefore arise from a reduced number of π–π stacking interactions, a known driving factor in the gelation process, or the higher entropic cost associated with glycine residues.

[2] = Critical aggregation concentration (CAC) by intrinsic self-fluorescence; assay type: physicochemical; conditions: 10 mM PBS pH 7.4, no external probe, excitation 310 nm, emission intensity at 407 or 417 nm vs concentration, break point, 20 °C
Protocol: A Shimadzu RF-6000 (Kyoto, Japan) spectrofluorometer was used to perform fluorescence measurements. Samples were placed in a 10.0 mm × 5.00 mm quartz cell and the settings used for the measurement were excitation and emission bandwidths of 2.5 nm and temperature of 20 °C. The critical aggregation concentration (CAC) of the peptides was estimated through the evaluation of the self-fluorescence behavior of the peptides. After excitation at 310 nm, the intensity of the emission band at 407 or 417 nm was checked and plotted as a function of concentration. Spectra were also recorded in excitation mode.
The ability of the multi-LARKS to self-assemble was evaluated in physiological buffer conditions (10 mM PBS, pH 7.4). Critical aggregation concentrations (CACs), designated as the minimum concentrations at which they spontaneously self-assemble, were assessed in the absence of any external fluorescence probe and by detecting the nonaromatic intrinsic self-fluorescence at increasing peptide concentrations. […] All the multi-LARK sequences here studied presented a near-UV emission, with a maximum of excitation at 310 nm.
By plotting the fluorescence intensity at the maximum emission wavelength as a function of concentration, CAC values, calculated at the break point, resulted 128 μM, 236 μM, 153 μM and 175 μM for L1-L2-L3, L1-L2, L1-L3, and L2-L3, respectively (see Table S2). […]

[3] = Aggregation kinetics followed by self-fluorescence in microplate reader; assay type: physicochemical; conditions: 2.0 mM peptide in PBS; λex 355 nm, emission 460 nm over 300 h; 96-well plate, orbital shake 200 rpm; triplicate
Protocol: Aggregation kinetics of peptide samples at 2.0 mM were followed by using a FLUOstar Omega (BMG LABTECH) microplate reader. Aliquots of 100 μL of each sample were placed in wells of a 96-well plate and covered with an aluminum foil to avoid evaporation of the solvent. Experimental settings were: λex = 355 nm, gain 1000, bottom optic, orbital shake 200 rpm between readings. Emission intensity at 460 nm was recorded over 300 h and subtracted for the blank. Experiments were conducted in triplicate.
The aggregation kinetics of the four multi-LARK sequences were monitored using fluorescence experiments, by exploiting the photoemissive behavior of the peptides in the blue field. As the fluorescence emission of these sequences require the aggregation state, as shown by the analyses conducted in solution, it represents a convenient probe of the self-assembly process. Upon excitation at 355 nm of 2.0 mM peptide solutions, the emission at 460 nm was recorded across a 300 h period (Figure S9). By reporting the fluorescence intensity as a function of time, we observed consistent trends across the four multi-LARKS samples, characterized by three different kinetic phases. […] This lag-phase was followed by a linear increase of the fluorescence signal at 460 nm in a relatively short period for all the samples (between 5 and 30 h) except in the case of L1-L2, where this second phase was longer (∼80 h). […]

[4] = Rheological studies of hydrogels as a function of temperature; assay type: physicochemical; conditions: amplitude 0.1%, frequency 1 Hz; for G′ (storage modulus) upon cooling back to 4 °C / G′ (storage modulus) upon heating to 80 °C / G′ (storage modulus), initial value at 4 °C: 2 wt % hydrogel in PBS; for G′ (storage modulus) upon cooling back to 4 °C: after cooling ramp 80 to 4 °C; for G′ (storage modulus) upon heating to 80 °C: end of heating ramp 4 to 80 °C; for G′ (storage modulus), initial value at 4 °C: start of heating ramp 4 to 80 °C
Protocol: Rheological measurements of freshly preformed hydrogels (1000 μL) were performed with a rotational controlled-stress Haake Mars 40 rheometer (Thermo Fisher, Germany) by using a 3.5 cm diameter flat-plate geometry (P35/TI) with a gap of 0.5 mm. The analyses were conducted at different temperatures increasing from 4 to 80 °C and then decreasing from 80 to 4 °C. Amplitude (γ) was set at 0.1% and Frequency 1 Hz. G′ (storage modulus) and G″ (loss modulus) are reported as a function of the temperature.
To study the mechanical behavior of the matrices, hydrogels from L1-L2-L3 and L1-L2 sequences were subjected to rheological measurements. The storage (G′) and loss (G″) moduli, two key parameters describing the viscoelastic behavior of materials, were studied as a function of the temperature. Measurements were conducted across the entire temperature range, increasing from 4 to 80 °C and subsequently decreasing from 80 to 4 °C. […] However, the heating/cooling process induced significant increase in the rigidity of both samples. […] For the L1-L2 sample, the initial values of G′ at these temperatures were 1 Pa at 4 °C, 32 Pa at 80 °C, and 7314 Pa upon cooling back at 4 °C. To enhance the hydrogel disaggregation response to temperature increase, we adopted a design strategy focused on incorporating disruptive elements into the peptide sequences. This approach stems from the insights that the L3 sequence has the potential to inhibit the aggregation of the multi-LARK peptides. Following this rationale, we initially synthesized a multi-LARK sequence made of L3-L2-L3 LCDs (Figure S13a).

[5] = Hydrogel stability in contact with acidic and basic solutions; assay type: physicochemical; conditions: preformed hydrogels, room temperature, macroscopically observed up to 7 days
Protocol: To address the impact of the primary sequence on the hydrogel’s sensitivity to external stimuli, their mechanical behavior as a response to pH and temperature triggers was tested. Preformed L1-L2 and L1-L2-L3 hydrogels were put in contact with both acidic (pH 5) and basic (pH 10) solutions at room temperature and were macroscopically observed over time up to 7 days. […] This behavior can be rationalized considering that the presence of ionizable acidic or basic amino acids typically drives pH-responsive properties in peptide-based systems. In our case, the sequences contain only a single acidic residue (Asp, D), which is located within the linker region rather than in the LARKS domains considered to be responsible for driving the gelation process.

[6] = dissolved in water, overnight incubation at 4 °C; ref Eisenberg and co-workers; cited from earlier work

Row | Critical aggregation concentration (CAC) [2] [µM] | Lag-phase duration (constant fluorescence intensity) of aggregation kinetics [3] [h] | Concentration at which self-supporting hydrogel is obtained ([1]; 10 mM PBS, overnight at 4 °C) [wt %] | G′ (storage modulus) upon cooling back to 4 °C [4] [Pa] | G′ (storage modulus) upon heating to 80 °C [4] [Pa] | G′ (storage modulus), initial value at 4 °C [4] [Pa] | Substance | Hydrogel stability to acidic (pH 5) and basic (pH 10) solutions [5] | also measured
1 | – | – | – | – | – | – | Ac-STGGYGGDTSYSSYGQSNGPSTGGYG-NH2 [L3-L2-L3] | – | Hydrogel formation ([1]; concentrations ranging from 2 to 5 wt %): unable to form hydrogels
2 | 153 | ~50 | – | – | – | – | Ac-SYSGYSNGPSTGGYG-NH2 [L1-L3] | – | Hydrogel formation ([1]; 10 mM PBS, overnight at 4 °C): no gel formation
3 | – | – | 3 | – | – | – | Ac-STGGYSGDTSYSSYGQS-NH2 [L1**-L2] | – | Temperature at which hydrogel undergoes breakdown (unable to reform upon cooling) ([4]; 3 wt % hydrogel in PBS, heating 4 to 80 °C): 55 °C
4 | 128 | ~50 | ≥ 2 | 75762 | 4708 | 1967 | Ac-SYSGYSGDTSYSSYGQSNGPSTGGYG-NH2 [L1-L2-L3] | No significant variations | Concentration at which hydrogel forms in water [6]: 5 wt %
5 | – | – | – | – | – | – | Ac-SYSGYSGDTSYSSYGQS-NH2 [L1-L2] | No significant variations | Emission maximum of aggregation-induced fluorescence: 400 nm
6 | – | – | 2 | 154332 | 497 | 818 | Ac-SYGGYSGDTSYSSYGQS-NH2 [L1*-L2] | – | –
